Source: PubChem BioAssay (NCI)
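Results reflect a 48-hour exposure of cells in 96-well plates to compound at five concentrations. TGI: concentration producing complete growth inhibition.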

What was measured:
Experiment in all cases: DTP human tumour cell line panel, 48 h
[1] = test system: 786-0 renal
[2] = test system: A549 NSCLC
[3] = test system: ACHN renal
[4] = test system: BT-549 breast
[5] = test system: CCRF-CEM leukemia
[6] = test system: COLO 205 colon
[7] = test system: DU-145 prostate
[8] = test system: HCC-2998 colon
[9] = test system: HCT-15 colon
[10] = test system: HL-60(TB) leukemia
[11] = test system: HOP-92 NSCLC
[12] = test system: HS 578T breast
[13] = test system: HT29 colon
[14] = test system: IGROV1 ovarian
[15] = test system: K-562 leukemia
[16] = test system: KM12 colon
[17] = test system: LOX IMVI melanoma
[18] = test system: M14 melanoma
[19] = test system: MALME-3M melanoma
[20] = test system: MCF7 breast
[21] = test system: MDA-MB-231 breast
[22] = test system: MDA-MB-435
[23] = test system: MDA-N
[24] = test system: MOLT-4 leukemia
[25] = test system: NCI-H226 lung
[26] = test system: NCI-H23 lung
[27] = test system: NCI-H460 lung
[28] = test system: NCI-H522 lung
[29] = test system: OVCAR-3 ovarian
[30] = test system: OVCAR-4 ovarian
[31] = test system: OVCAR-5 ovarian
[32] = test system: OVCAR-8 ovarian
[33] = test system: RPMI-8226 leukemia
[34] = test system: RXF 393 renal
[35] = test system: SF-268 CNS
[36] = test system: SK-MEL-2 melanoma
[37] = test system: SK-MEL-28 melanoma
[38] = test system: SK-MEL-5 melanoma
[39] = test system: SN12C renal
[40] = test system: SNB-19 CNS
[41] = test system: SNB-75 CNS
[42] = test system: SR leukemia
[43] = test system: SW-620 colon
[44] = test system: T-47D breast
[45] = test system: TK-10 renal
[46] = test system: U251 CNS
[47] = test system: UACC-257 melanoma
[48] = test system: UACC-62 melanoma
[49] = test system: UO-31 renal
[50] = test system: A498 renal
[51] = test system: CAKI-1 renal
[52] = test system: EKVX NSCLC
[53] = test system: HCT-116 colon
[54] = test system: HOP-62 NSCLC
[55] = test system: PC-3 prostate
[56] = test system: SF-295 CNS
[57] = test system: SF-539 CNS
[58] = test system: SK-OV-3 ovarian
[59] = test system: NCI/ADR-RES ovarian

Measured: TGI

CN1CCN(C(=S)N(C(=O)c2cccs2)c2ccccc2)CC1
not listed: [50] | [51] | [52] | [53] | [54] | [55] | [56] | [57] | [58] | [59]
> 100 µM: all other assays above

Cc1nn(C(=O)Cc2ccccc2)c2c1C(c1ccc3ccccc3c1O)SC(N)=N2 (stereo not drawn)
64.2 µM: [5]
not listed: [1] | [11] | [19] | [29] | [30] | [31] | [34] | [36] | [46] | [59]
> 100 µM: all other assays above

Cc1ccc(-c2c(C#N)c(N)[nH]c(=S)c2C#N)cc1
65.8 µM: [33]
62.2 µM: [19]
76.9 µM: [24]
46.5 µM: [34]
69 µM: [6]
77.5 µM: [1]
41.3 µM: [23]
72.6 µM: [36]
66.9 µM: [42]
66.1 µM: [52]
52.8 µM: [10]
55.6 µM: [28]
51.4 µM: [12]
76 µM: [39]
65.4 µM: [22]
not listed: [5] | [41] | [44] | [58]
> 100 µM: all other assays above
